pEC50, pIC50: −log10 of the molar value.

The source of these data is patent US8969363B2, “Heterocyclic compounds and uses thereof” (Infinity Pharmaceuticals, Inc., priority 2011, dated 2015).

One assay concerns the target T1, PI3Kα (Homo sapiens, UniProt P42336).
T1 construct: purchased Millipore Corporation 14-602-K
The experiment in a line: PI3 Kinase HTRF assay, PI3Kα. It is filed as biochemical. The note with it: 10 μM PIP2, 10 μM ATP; 'Greater than 10 μM' and 'Greater than 1 μM to 10 μM'; read-out: PI3K α IC50. The text has this:
(§1) A PI3-Kinase HTRF® assay kit (cat No. 33-016) purchased from Millipore Corporation was used to screen compounds provided herein. This assay used specific, high affinity binding of the GRP1 pleckstrin homology (PH) domain to PIP3, the product of a Class 1A or 1B PI3 Kinase acting on its physiological substrate PIP2. During the detection phase of the assay, a complex was generated between the GST-tagged PH domain and biotinylated short chain PIP3. The biotinylated PIP3 and the GST-tagged PH domain recruited fluorophores (Streptavidin-Allophycocyanin and Europium-labeled anti-GST respectively) to form the fluorescence resonance energy transfer (FRET) architecture, generating a stable time-resolved FRET signal. The FRET complex was disrupted in a competitive manner by non-biotinylated PIP3, a product formed in the PI3 Kinase assay.
(§2) PI3 Kinase α, β, γ and δ activity was assayed using the PI3 Kinase HTRF® assay kit (catalogue No. 33-016) purchased from Millipore Corporation. Purified recombinant PI3Kα (catalogue No. 14-602-K), PI3Kβ (catalogue No. 14-603-K), PI3Kγ (catalogue No. 14-558-K) and PI3Kδ (catalogue No. 14-604-K) were obtained from Millipore Corporation. Purified recombinant PI3K enzyme was used to catalyze the phosphorylation of phosphatidylinositol 4,5-bisphosphate (PIP2 at 10 μM) to phosphatidylinositol 3,4,5-trisphosphate (PIP3) in the presence of 10 μM ATP. The assay was carried out in 384-well format and detected using a Perkin Elmer EnVision Xcite Multilabel Reader. Emission ratios were converted into percent inhibitions and imported into GraphPad Prism software. The concentration necessary to achieve inhibition of enzyme activity by 50% (IC50) was calculated using concentrations ranging from 20 μM to 0.1 nM (12-point curve). IC50 values were determined using a nonlinear regression model available in GraphPad Prism 5. […]

In the next assay the test system is Balb/c splenic B cells. The experiment in a line: B cell activation and proliferation assay (Alamar Blue). The note with it: Mus musculus, 'Less than 100 nM'. The assay is classed as cell-based. As to the method:
The ability of one or more subject compounds to inhibit B cell activation and proliferation is determined according to standard procedures known in the art. For example, an in vitro cellular proliferation assay is established that measures the metabolic activity of live cells. The assay is performed in a 96 well microtiter plate using Alamar Blue reduction. Balb/c splenic B cells are purified over a Ficoll-Paque™ PLUS gradient followed by magnetic cell separation using a MACS B cell Isolation Kit (Miletenyi). Cells are plated in 90 μl at 50,000 cells/well in B Cell Media (RPMI+10% FBS+Penn/Strep+50 μM bME+5 mM HEPES). A compound provided herein is diluted in B Cell Media and added in a 10 μl volume. Plates are incubated for 30 min at 37° C. and 5% CO2 (0.2% DMSO final concentration). A 50 μl B cell stimulation cocktail is then added containing either 10 μg/ml LPS or 5 μg/ml F(ab′)2 Donkey anti-mouse […] plus 2 ng/ml recombinant mouse IL4 in B Cell Media. Plates are incubated for 72 hours at 37° C. and 5% CO2. A volume of 15 μL of Alamar Blue reagent is added to each well and plates are incubated for 5 hours at 37° C. and 5% CO2. Alamar Blue fluoresce is read at 560Ex/590Em, and IC50 or EC50 values are calculated using GraphPad Prism 5.
(Alamar Blue is a resazurin reagent that responds to reducing activity.)

In the next assay the target is PI3Kβ. In words: PI3 Kinase HTRF assay, PI3Kβ. The assay is classed as biochemical, human. The settings on record: 10 μM PIP2, 10 μM ATP; 'Greater than 10 μM' and 'Greater than 1 μM to 10 μM'; read-out: PI3K β IC50.
Chain of PI3Kβ (Q8BTI9 whole entry): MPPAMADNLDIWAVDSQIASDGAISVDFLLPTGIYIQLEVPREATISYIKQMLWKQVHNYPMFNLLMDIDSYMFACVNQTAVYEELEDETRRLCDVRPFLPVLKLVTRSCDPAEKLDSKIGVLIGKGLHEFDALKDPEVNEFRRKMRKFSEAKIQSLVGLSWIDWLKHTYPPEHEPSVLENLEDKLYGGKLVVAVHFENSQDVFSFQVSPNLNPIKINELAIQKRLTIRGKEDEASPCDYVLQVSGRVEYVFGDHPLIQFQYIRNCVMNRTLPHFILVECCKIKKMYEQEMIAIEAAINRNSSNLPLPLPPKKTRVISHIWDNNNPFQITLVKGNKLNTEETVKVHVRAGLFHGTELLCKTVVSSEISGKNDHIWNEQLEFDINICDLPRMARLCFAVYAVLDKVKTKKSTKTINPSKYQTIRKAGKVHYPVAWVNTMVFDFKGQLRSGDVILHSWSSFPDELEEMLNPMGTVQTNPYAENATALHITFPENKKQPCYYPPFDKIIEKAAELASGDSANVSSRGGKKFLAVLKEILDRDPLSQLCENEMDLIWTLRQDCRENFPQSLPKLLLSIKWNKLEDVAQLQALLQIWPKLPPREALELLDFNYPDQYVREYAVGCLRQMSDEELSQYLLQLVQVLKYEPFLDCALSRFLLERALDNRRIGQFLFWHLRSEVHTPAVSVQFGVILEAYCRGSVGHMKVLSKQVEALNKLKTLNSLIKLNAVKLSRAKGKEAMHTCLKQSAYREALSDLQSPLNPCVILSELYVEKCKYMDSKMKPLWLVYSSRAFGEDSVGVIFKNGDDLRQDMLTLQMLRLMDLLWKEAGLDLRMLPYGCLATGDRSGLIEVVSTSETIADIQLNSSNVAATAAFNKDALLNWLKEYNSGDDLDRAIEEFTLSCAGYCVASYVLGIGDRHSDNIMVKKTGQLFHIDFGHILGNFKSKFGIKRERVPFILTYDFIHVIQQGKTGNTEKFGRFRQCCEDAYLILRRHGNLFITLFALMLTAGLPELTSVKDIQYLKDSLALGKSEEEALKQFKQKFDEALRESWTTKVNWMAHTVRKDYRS
From the text: as §1
as §2, with “Purified recombinant PI3Kα (catalogue No. 14-602-K), PI3Kβ (catalogue No. 14-603-K), PI3Kγ (catalogue No. 14-558-K) and PI3Kδ (catalogue No. 14-604-K) were obtained from Millipore Corporation.” left out, “The concentration necessary to achieve inhibition of enzyme activity by 50% (IC50) was calculated using concentrations ranging from 20 μM to 0.1 nM (12-point curve).” left out

T1 sequence (P42336 whole entry): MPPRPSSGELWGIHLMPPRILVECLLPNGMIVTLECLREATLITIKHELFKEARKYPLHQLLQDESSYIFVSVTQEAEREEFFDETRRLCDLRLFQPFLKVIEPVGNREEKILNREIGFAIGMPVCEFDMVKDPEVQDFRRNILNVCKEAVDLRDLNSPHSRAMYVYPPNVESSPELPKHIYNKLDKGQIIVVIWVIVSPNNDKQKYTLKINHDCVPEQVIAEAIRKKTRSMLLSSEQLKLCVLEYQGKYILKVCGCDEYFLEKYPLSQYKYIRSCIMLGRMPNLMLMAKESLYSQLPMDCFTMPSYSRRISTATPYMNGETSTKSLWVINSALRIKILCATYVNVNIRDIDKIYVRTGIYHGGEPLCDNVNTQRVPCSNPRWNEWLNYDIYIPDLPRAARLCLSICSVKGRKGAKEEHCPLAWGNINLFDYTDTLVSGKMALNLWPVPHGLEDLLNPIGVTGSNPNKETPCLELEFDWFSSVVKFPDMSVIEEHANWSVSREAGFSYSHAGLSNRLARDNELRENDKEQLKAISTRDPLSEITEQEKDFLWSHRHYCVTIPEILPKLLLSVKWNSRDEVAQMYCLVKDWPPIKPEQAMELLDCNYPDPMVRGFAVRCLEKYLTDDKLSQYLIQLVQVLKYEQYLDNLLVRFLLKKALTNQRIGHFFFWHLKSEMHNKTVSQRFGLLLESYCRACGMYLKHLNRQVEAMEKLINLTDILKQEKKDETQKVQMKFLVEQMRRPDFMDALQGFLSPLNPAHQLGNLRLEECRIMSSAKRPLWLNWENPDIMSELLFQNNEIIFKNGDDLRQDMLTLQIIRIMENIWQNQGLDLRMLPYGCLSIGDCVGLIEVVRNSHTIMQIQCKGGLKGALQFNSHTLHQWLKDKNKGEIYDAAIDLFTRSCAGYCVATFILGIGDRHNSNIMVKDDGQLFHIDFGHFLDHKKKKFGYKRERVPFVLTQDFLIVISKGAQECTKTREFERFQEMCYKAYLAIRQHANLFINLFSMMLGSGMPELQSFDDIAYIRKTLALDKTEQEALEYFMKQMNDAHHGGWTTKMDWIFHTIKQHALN
T1 sequence (P27986 whole entry partner): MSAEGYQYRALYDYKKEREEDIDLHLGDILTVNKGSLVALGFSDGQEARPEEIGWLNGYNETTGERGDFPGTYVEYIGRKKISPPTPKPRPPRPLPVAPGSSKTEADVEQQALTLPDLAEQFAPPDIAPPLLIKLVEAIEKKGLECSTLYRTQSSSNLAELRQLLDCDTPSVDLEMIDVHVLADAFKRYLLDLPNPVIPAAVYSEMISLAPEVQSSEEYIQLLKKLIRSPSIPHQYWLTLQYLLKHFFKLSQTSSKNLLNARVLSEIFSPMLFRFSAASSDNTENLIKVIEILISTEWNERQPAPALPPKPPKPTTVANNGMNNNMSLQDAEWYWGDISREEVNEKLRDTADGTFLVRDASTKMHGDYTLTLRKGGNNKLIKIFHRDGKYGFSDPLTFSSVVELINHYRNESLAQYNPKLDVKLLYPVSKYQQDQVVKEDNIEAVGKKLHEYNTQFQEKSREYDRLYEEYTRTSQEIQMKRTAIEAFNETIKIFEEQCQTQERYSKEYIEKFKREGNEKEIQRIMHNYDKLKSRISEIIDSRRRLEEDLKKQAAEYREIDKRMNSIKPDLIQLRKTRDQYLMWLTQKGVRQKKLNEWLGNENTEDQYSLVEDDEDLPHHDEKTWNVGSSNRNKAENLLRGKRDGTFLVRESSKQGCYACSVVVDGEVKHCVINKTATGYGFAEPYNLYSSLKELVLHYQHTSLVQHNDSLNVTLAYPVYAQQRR

In the case of `C[C@H](Nc1ncnc2cccnc12)c1cc2cccc(Cl)c2c(=O)n1-c1ccccc1` [Compound I-2], the pIC50 (usually −log10 of the IC50, conventionally taken in molar units) at PI3Kα was 5.00 to 6.00. Also, in the assay with Balb/c splenic B cells, the pEC50 (as a rule, −log10 of the EC50, conventionally taken in molar units) was above 7.00.
Regarding `C[C@H](Nc1ncnc2cccnc12)c1cc2c(F)cccc2c(=O)n1-c1ccccc1` [Compound I-4], the pIC50 on PI3Kβ and on PI3Kα was 5.00 to 6.00 each time. This compound gave a pEC50 with Balb/c splenic B cells above 7.00.
As to `C[C@H](Nc1ncnc2cccnc12)c1cc2ccc(F)cc2c(=O)n1-c1ccccc1` [Compound I-18], the pIC50 at PI3Kβ and on PI3Kα was 5.00 to 6.00 in each case. Also, in the assay on Balb/c splenic B cells, the pEC50 is above 7.00.
Consider `C[C@H](Nc1ncnc2cccnc12)c1cc2cccc(-c3cnn(C)c3)c2c(=O)n1C1CC1` [Compound I-24], for which the pIC50 at PI3Kβ and at PI3Kα was 5.00 to 6.00 each time. In addition, the pEC50 with Balb/c splenic B cells was above 7.00.
As for `C[C@H](Nc1ncnc2cccnc12)c1cc2cccc(-c3cnn(C)c3)c2c(=O)n1-c1cccc(F)c1` [Compound I-25], the values for the negative logarithm of the IC50 (pIC50) on PI3Kβ and at PI3Kα were below 5.00 and 5.00 to 6.00, respectively. Moreover, the pEC50 in the assay with Balb/c splenic B cells was above 7.00.
As to `C[C@H](Nc1ncnc2cccnc12)c1cc2scc(Cl)c2c(=O)n1-c1ccccc1` [Compound I-29], on PI3Kα, the pIC50 is 5.00 to 6.00.
Consider `C[C@H](Nc1nc(N)nc2cccnc12)c1cc2cccc(-c3cnn(C)c3)c2c(=O)n1-c1ccccc1` [Compound I-36], for which the pIC50 at PI3Kβ is below 5.00; at PI3Kα, 5.00 to 6.00.
In the case of `C[C@H](Nc1nc(N)nc2cccnc12)c1cc2cccc(-c3cnn(C)c3)c2c(=O)n1-c1cccc(F)c1` [Compound I-38], the pIC50 was below 5.00 on PI3Kβ and 5.00 to 6.00 at PI3Kα. This compound also showed a pEC50 with Balb/c splenic B cells above 7.00.
Consider `C[C@H](Nc1ncnc2cccnc12)c1cc2cccc(-c3ccc(N)nc3)c2c(=O)n1-c1ccccc1` [Compound I-43], for which the figures for the pIC50 at PI3Kβ and at PI3Kα were below 5.00 and 5.00 to 6.00, respectively. Moreover, the pEC50 in the assay on Balb/c splenic B cells was above 7.00.
As to `Cc1cc(-c2cccc3cc([C@H](C)Nc4ncnc5cccnc45)n(-c4ccccc4)c(=O)c23)cnc1C` [Compound I-44], the pIC50 was below 5.00 at PI3Kβ and 5.00 to 6.00 on PI3Kα.
Take `Cc1nn(C)cc1-c1cccc2cc([C@H](C)Nc3ncnc4cccnc34)n(-c3ccccc3)c(=O)c12` [Compound I-47]: the pIC50 was below 5.00 on PI3Kβ and 5.00 to 6.00 at PI3Kα.
In the case of `C[C@H](Nc1ccnc2cccnc12)c1cc2cccc(Cl)c2c(=O)n1-c1ccccc1` [Compound I-49], on PI3Kα, the pIC50 was 5.00 to 6.00. The same compound gave a pEC50 in the assay on Balb/c splenic B cells above 7.00.
As to `C[C@H](Nc1ccnc2ccnn12)c1cc2cccc(Cl)c2c(=O)n1-c1ccccc1` [II-2, (S)-8-chloro-2-phenyl-3-(1-(pyrazolo[1,5-a]pyrimidin-7-ylamino)ethyl)isoquinolin-1(2H)-one], the pIC50 on PI3Kα is 5.00 to 6.00. In addition, the negative logarithm of the EC50 (pEC50) with Balb/c splenic B cells was above 7.00.
On to `C[C@H](Nc1ccnc2ccnn12)c1cc2cccc(Cl)c2c(=O)n1C1CC1` [II-7], for which, at PI3Kα, the negative-log IC50 (pIC50) was 5.00 to 6.00. Besides, the pEC50 with Balb/c splenic B cells is above 7.00.
On the same counts, the results for `C[C@H](Nc1ccnn2ccnc12)c1cc2cccc(Cl)c2c(=O)n1C1CC1` [II-11] are 5.00 to 6.00 and above 7.00.
In the case of `C[C@H](Nc1ccnn2ccnc12)c1cc2cccc(Cl)c2c(=O)n1-c1cccc(F)c1` [II-14], the pIC50 on PI3Kα was 5.00 to 6.00. The pEC50 in the assay with Balb/c splenic B cells is above 7.00.
As to `C[C@H](Nc1ccnc2ccnn12)c1cc2scc(Cl)c2c(=O)n1-c1ccccc1` [II-20], on PI3Kα, the pIC50 was 5.00 to 6.00.
As for `C[C@H](Nc1ccnn2ccnc12)c1cc2scc(Cl)c2c(=O)n1-c1ccccc1` [II-22], the pIC50 on PI3Kα was 5.00 to 6.00.
As for `C[C@H](Nc1ncnc2ccnn12)c1cc2cccc(Cl)c2c(=O)n1-c1ccccc1` [II-24], the pIC50 on PI3Kα is 5.00 to 6.00.
Consider `COc1ncc(-c2cccc3cc([C@H](C)Nc4ccnn5ccnc45)n(-c4ccccc4)c(=O)c23)cn1` [II-48], for which the figures for the negative-log IC50 (pIC50) at PI3Kβ and at PI3Kα were below 5.00 and 5.00 to 6.00, respectively.
Consider `C[C@H](Nc1ncnc2[nH]cnc12)c1cc2cccc(C(F)(F)F)c2c(=O)n1-c1ccccc1` [III-3], for which, on PI3Kα, the negative logarithm of the IC50 (pIC50) was 5.00 to 6.00. The negative logarithm of the EC50 (pEC50) in the assay on Balb/c splenic B cells is above 7.00.
`C[C@H](Nc1ncnc2cccnc12)c1cc2cccc(C(F)(F)F)c2c(=O)n1-c1ccccc1` [III-4]: on PI3Kα, the pIC50 was 5.00 to 6.00. Besides, the pEC50 in the assay with Balb/c splenic B cells was above 7.00.
Consider `C[C@H](Nc1ccnc2ccnn12)c1cc2cccc(C(F)(F)F)c2c(=O)n1-c1ccccc1` [III-6], for which, on PI3Kα, the pIC50 is 5.00 to 6.00. Moreover, the pEC50 with Balb/c splenic B cells was above 7.00.
Take `C[C@H](Nc1ccnn2ccnc12)c1cc2cccc(C(F)(F)F)c2c(=O)n1-c1ccccc1` [III-8, (S)-3-(1-(imidazo[1,2-b]pyridazin-8-ylamino)ethyl)-2-phenyl-8-(trifluoromethyl)isoquinolin-1(2H)-one]: at PI3Kα, the pIC50 was 5.00 to 6.00. Further, in the assay on Balb/c splenic B cells, the pEC50 is above 7.00.
As for `C[C@H](Nc1ncnc2scnc12)c1cc2cccc(C(F)(F)F)c2c(=O)n1-c1cccc(F)c1` [III-10], at PI3Kα, the pIC50 is 5.00 to 6.00. Besides, the negative-log EC50 (pEC50) with Balb/c splenic B cells is above 7.00.
On to `C[C@H](Nc1ncnc2[nH]cc(F)c12)c1cc2cccc(C(F)(F)F)c2c(=O)n1-c1ccccc1` [III-18], for which the negative logarithm of the IC50 (pIC50) at PI3Kβ and on PI3Kα was 5.00 to 6.00 in each case.
Turning to `C[C@H](Nc1ncnc2[nH]cc(C(N)=O)c12)c1cc2cccc(C(F)(F)F)c2c(=O)n1-c1ccccc1` [III-20], on PI3Kα, the negative-log IC50 (pIC50) was 5.00 to 6.00.
Regarding `C[C@H](Nc1nc(N)nc2cccnc12)c1cc2cccc(C(F)(F)F)c2c(=O)n1-c1ccccc1` [III-23], the pIC50 at PI3Kα is 5.00 to 6.00.
Take `C[C@H](Nc1nc(N)nc2scnc12)c1cc2cccc(C(F)(F)F)c2c(=O)n1-c1ccccc1` [III-25]: the pIC50 on PI3Kβ and at PI3Kα was 5.00 to 6.00 throughout.
As for `C[C@H](Nc1ncnn2ccnc12)c1cc2cccc(C(F)(F)F)c2c(=O)n1-c1ccccc1` [III-27], at PI3Kα, the pIC50 is 5.00 to 6.00. Also, the pEC50 with Balb/c splenic B cells was above 7.00.
On the same counts, the results for `C[C@H](Nc1nc(N)nc2[nH]cnc12)c1cc2cccc(C(F)(F)F)c2c(=O)n1-c1cccc(F)c1` [III-30] are 5.00 to 6.00 and above 7.00.
Take `C[C@H](Nc1ccnc2scnc12)c1cc2cccc(C(F)(F)F)c2c(=O)n1-c1ccccc1` [III-36, (S)-2-phenyl-3-(1-(thiazolo[5,4-b]pyridin-7-ylamino)ethyl)-8-(trifluoromethyl)isoquinolin-1(2H)-one]: the pIC50 at PI3Kα is 5.00 to 6.00. This compound gave a pEC50 in the assay with Balb/c splenic B cells above 7.00.
As for `C[C@H](Nc1ncnc2scnc12)c1cc2scc(C(F)(F)F)c2c(=O)n1-c1ccccc1` [III-39], the pIC50 on PI3Kα was 5.00 to 6.00. The same compound showed a pEC50 in the assay with Balb/c splenic B cells above 7.00.
On the same counts, the results for `C[C@H](Nc1nc(N)ncc1C#N)c1cc2cccc(C(F)(F)F)c2c(=O)n1-c1ccccc1` [III-44] are 5.00 to 6.00 and above 7.00.
As to `C[C@H](Nc1nc(N)ncc1C#N)c1cc2cccc(C(F)(F)F)c2c(=O)n1-c1cccc(F)c1` [III-45], the pIC50 at PI3Kα is 5.00 to 6.00. Besides, the negative-log EC50 (pEC50) in the assay with Balb/c splenic B cells was above 7.00.
For `C[C@H](Nc1ncnc(N)c1C#N)c1cc2cccc(C(F)(F)F)c2c(=O)n1-c1cccc(F)c1` [III-49], the pIC50 at PI3Kα was 5.00 to 6.00. This compound also gave a pEC50 in the assay on Balb/c splenic B cells above 7.00.
With `C[C@H](Nc1ncnn2ccnc12)c1cc2cccc(Cl)c2c(=O)n1-c1ccccc1` [IV-12], at PI3Kα, the pIC50 was 5.00 to 6.00.
Regarding `C[C@H](Nc1ncnn2ccnc12)c1cc2cccc(Cl)c2c(=O)n1-c1cccc(F)c1` [IV-13], the pIC50 at PI3Kβ and at PI3Kα was 5.00 to 6.00 each time.
